Consider four compounds from publication PMC4725915, “Ruthenium(II) Complexes with 2-Phenylimidazo[4,5-f][1,10]phenanthroline Derivatives that Strongly Combat Cisplatin-Resistant Tumor Cells” (Scientific Reports, 2016).

Series [1] relates to A549R MCTSs. The experiment in a line: Cytotoxicity test on 3D MCTSs (Cell TiterGlo ATP). Format: cell-based, human. The note with it: A549R MCTSs (~400 μm in diameter), 48 h. As for the experimental part:
MCTSs were cultured using the liquid overlay method. A549R cells in the exponential growth phase were dissociated by a trypsin/EDTA solution to gain single-cell suspensions. A number of 3000 diluted A549R cells were transferred to 1.5% agarose-coated transparent 96-well plates with 200 μL of DMEM containing 10% serum. The single cells formed MCTS aggregates approximately 400 μm in diameter after three days with 5% CO2 and 20% O2 at 37 °C. After formation of the MCTSs, each MCTS in a 96-well plate was imaged with a phase contrast microscope (Zeiss Axio Observer D1, Germany) using 10× objective to monitor their color, integrity, diameter, and volume.
A549R MCTSs (diameters ≈400 μm) were treated by carefully replacing 50% of the medium with drug-supplemented standard medium using an eight-channel pipet. In parallel, 50% of the medium containing solvent was replaced with solvent-free medium for the untreated MCTSs. Three A549R MCTSs were treated per condition and drug concentration; the DMSO volume was less than 1% (v/v). The MCTSs were then allowed to incubate for another 48 h. The cytotoxicities of the Ru(II) complexes toward the MCTSs were measured using ATP concentrations with a Cell TiterGlo kit (Promega). After 30 min of incubation, the MCTSs were carefully transferred into black-sided, flat-bottomed 96-well plates (Corning) and mixed with a pipet for luminescence measurements on an Infinite M200 PRO instrument (TECAN).

The subject of series [2] is A549R MCTSs. The experiment in a line: Growth inhibition of drug-treated MCTSs (size by imaging). The series is classed as cell-based, human. The note with it: 100 μM. From the text:
Traditional research on the efficacy of cancer drugs is usually performed in two-dimensional (2-D) cell cultures, which may not be a true indicator of the in vivo effectiveness of cancer treatments. This is in part due to the absence of cell-cell or cell-extracellular matrix interactions in 2-D cell models. Therefore, the development of cell culture models that can close the gap between conventional 2-D cell experiments and animal studies is necessary to study the cytotoxicity and anti-proliferative activities of drugs. Multicellular tumor spheroids (MCTSs) are heterogeneous cellular aggregates that have properties of solid tumors, such as nutrient and oxygen gradients, hypoxic/necrotic regions, cell-cell matrix interactions, and gene expression.
MCTSs were cultured using the liquid overlay method. A549R cells in the exponential growth phase were dissociated by a trypsin/EDTA solution to gain single-cell suspensions. A number of 3000 diluted A549R cells were transferred to 1.5% agarose-coated transparent 96-well plates with 200 μL of DMEM containing 10% serum. The single cells formed MCTS aggregates approximately 400 μm in diameter after three days with 5% CO2 and 20% O2 at 37 °C. […]

Another series has as its system A549. The experiment in a line: MTT cytotoxicity assay, A549. The conditions noted are these: A549, 48 h, mean ± SD of three experiments. The series is classed as cell-based, human. As for the experimental part: (§1) Compounds 1–4 were evaluated against three tumor cell lines derived from different tissues, including the cervix (HeLa), lung (A549) and cisplatin-resistant lung (A549R) tissues. For comparison, the cytotoxicity of cisplatin was also evaluated. As a control, the toxicities of the complexes were also tested against the normal human cell line (LO2).
(§2) The human cervix carcinoma cell line (HeLa), the lung carcinoma cell lines (A549 and A549R), and the human hepatocyte cell line (LO2) were obtained from the Experimental Animal Center at Sun Yat-Sen University (Guangzhou, China). The cells were maintained in Dulbecco’s modified Eagle’s medium (DMEM, Gibco BRL) or Roswell Park Memorial Institute 1640 (RPMI 1640, Gibco BRL) medium supplemented with 10% fetal bovine serum (FBS, Gibco BRL), 100 μg/mL streptomycin, and 100 U/mL penicillin (Gibco BRL) in a humidified incubator under 5% CO2 and 20% O2 at 37 °C. To maintain the resistant phenotype, A549R cells were incubated with 5 μM cisplatin and cultured in drug-free medium for at least a week before use.
(§3) The cytotoxicity of the ruthenium complexes and cisplatin were determined by an MTT assay. Briefly, cells were seeded into 96-well microtiter plates at 1 × 10^4 cells per well and grown overnight at 37 °C in a 5% CO2 incubator; then, different concentrations of the complexes in cell culture medium were added to the cultures. The plates were then incubated in an incubator for 48 h under the same conditions. The stock MTT dye solution (15 μL, 5 mg/mL) was added to each well. After 4 h of incubation, the cultures were removed and 150 μL of DMSO was added to each well. The optical density of each well was measured on a microplate spectrophotometer at a wavelength of 595 nm.

The test system of series [3] is A549R cells. The experiment in a line: Subcellular distribution study by ICP-MS. Format: cell-based, human. The note with it: 2.0 μM, 12 h. As for the experimental part: (§4) To understand the high sensitivity of cancer cells to Ru(II) complexes, the extent of cellular uptake was investigated with inductively coupled plasma mass spectrometry (ICP-MS) by treating the HeLa, A549, A549R and LO2 cell lines with 2.0 μM concentrations of the Ru(II) complexes and cisplatin for 12 h. […] In this study, the cellular uptake and lipophilicity were distinctly correlated and followed the order: 4 >3 >2 >1. Complex 4 had the best accumulation, but the amount of Ru in LO2 cells was far less than that in the three cancer lines, indicating selective accumulation and improved efficiency for treating cancer. Cisplatin was taken up more efficiently by the sensitive cell line (A549) than by the cisplatin-resistant cell line (A549R). […] However, less than 1.5% of the cellular platinum was accumulated in the mitochondrial fraction of the A549R cells. Therefore, complex 4 could function in a different manner than cisplatin in A549R cells, which would be an appropriate solution to combat cisplatin resistance in tumor cells.
A549R cells were plated at a density of 1 × 10^5 cells/mL in 10 mL of DMEM for 24 h at 37 °C under 5% CO2 and 20% O2. […] The ruthenium or platinum contents were determined using inductively coupled plasma mass spectrometry (ICP-MS Thermo Elemental Co., Ltd.).

Series [4] concerns A549R cells. The experiment in a line: Cell uptake study by ICP-MS. The series is classed as cell-based, human. The conditions noted are these: 2.0 μM, 12 h. How it is done:
as §4
The cells were plated at a density of 1 × 10^5 cells/mL in 10 mL of DMEM for 24 h at 37 °C under 5% CO2 and 20% O2, Ruthenium complexes (2.0 μM) and cisplatin were added to the culture medium and incubated for 12 h, and mixed with cold PBS and a trypsin-EDTA solution in a centrifuge tube for counting. Then, the nuclei and cytoplasm of the cells were extracted by using a Nuclear and Cytoplasmic Protein Extraction Kit (Life Technologies). The samples were digested in 20% HNO3 and 10% H2O2 at room temperature overnight. Each sample was then diluted with Milli-Q water to obtain 2% HNO3 sample solutions. Ruthenium contents were determined using inductively coupled plasma mass spectrometry (ICP-MS Thermo Elemental Co., Ltd.).

The test system of a further series is A549R. The experiment in a line: MTT cytotoxicity assay, cisplatin-resistant A549R. Format: cell-based, human. The conditions noted are these: 48 h, mean ± SD of three experiments. How it is done: as §1, §2, §3
On the technique in general: Formazan colour is commonly taken as a measure of viable cells.

In a further series the test system is LO2. The experiment in a line: MTT cytotoxicity assay, normal LO2 cells. The note with it: LO2 normal human cell line, 48 h. Format: cell-based. As for the experimental part:
as §1, §2, §3

Series [5] relates to A549R cells. The experiment in a line: Real-time cell growth and proliferation assay (xCELLigence). The series is classed as cell-based, human. The note with it: 100 μM. As for the experimental part:
In addition, a real-time cell growth and proliferation assay using an xCELLigence System was utilized to confirm the high toxicity of complex 4 on A549R cells. […] In contrast, A549R cells were killed by treatment with complex 4 in a concentration-dependent manner.
This experiment was performed using an xCELLigence RTCA DP system real time cell analyzer (Roche Diagnostics GmbH, Germany). In brief, 80 μL of cell culture media was added to each well of a 16-well plate (E-plate 16, Roche Diagnostics GmbH, Germany). The 16-well plates were then connected to the system and checked for suitable electrical contacts in the real time cell analyzer, and the background impedance was measured for 24 s. Meanwhile, the A549R cells were suspended in cell culture medium and adjusted to 5 × 10^4 cells/mL, and 100 μL of each cell suspension was added to each well of […]. Approximately 24 h after seeding, the A549R cells were in the logarithmic phase of growth, and a wide range of concentrations of complex 4 and cisplatin (100 μM) were added. The cells were automatically monitored every 15 min over 48 h by the xCELLigence system. Data were analyzed using RTCA software (version 1.2) that was supplied with the instrument.

In a further series the test system is HeLa. The experiment in a line: MTT cytotoxicity assay, HeLa. Format: cell-based, human. The conditions noted are these: 48 h, mean ± SD of three experiments. How it is done:
as §1, §2, §3

A short description of series [6]: Distribution coefficient (log Po/w), flask-shaking, n-octanol/phosphate buffer. The series is classed as physicochemical. The conditions noted are these: n-octanol / phosphate buffer pH 7.4, 37 °C; in words only (Figure S8). How it is done:
Distribution coefficients (log Po/w) were determined by liquid-liquid extraction between n-octanol (oil) and phosphate buffers (0.2 M, pH 7.4) with the flask-shaking method. N-Octanol and the buffer were mutually saturated with each other for at least 24 h before use. An aliquot of a ruthenium complex stock solution was added to the phosphate buffer concentrations at <10 mg/mL, and the mixture was shaken at 100 rpm for 24 h at 37 °C to allow for adequate partitioning. After the sample was centrifuged at 3000 rpm for 20 min, the aqueous layer was used for ruthenium analysis, and the Ru content in the aqueous layer was measured by ICP-MS and used to calculate the log Po/w.

For series [7], the system named is cancer cell lines (HeLa, A549, A549R). The experiment in a line: MTT cytotoxicity, all tested cancer cell lines taken together. The series is classed as cell-based, human. The note with it: 48 h, read-out: IC50 toward all the tested cancer cell lines. How it is done: as §1, §3

For orientation: IC50 means the concentration at which inhibition is half-maximal. On to `N.N.[Cl][Pt][Cl]` [cisplatin], for which the IC50 in the series on A549R MCTSs [1] is greater than 200 µM; in the series with A549, 21.3 ± 3.3 µM; in the series with A549R, 142 ± 5.4 µM; in the series with LO2 it was 18.9 ± 2.6 µM; in the series on HeLa, 15.1 ± 2.1 µM. Further, the “change in size of A549R MCTSs” value in the series on A549R MCTSs [2] is given as “increased with time”. Moreover, the “share of cellular metal accumulated in the mitochondrial fraction” value in the series with A549R cells [3] was “less than 1.5%”. In addition, the “share of the compound taken up by A549R cells” value in the series with A549R cells [4] (A549R) is “less than 1%”. Also, the “platinum level in A549 cells relative to A549R cells” value in the series on A549R cells [4] (A549 vs A549R) is recorded as “ca. 4 fold”. Moreover, the “effect on A549R cells compared to the control (xCELLigence)” value with A549R cells [5] is “negative effect”.
Consider `FC(F)(F)c1ccc(-c2nc3c4cccnc4c4ncccc4c3[nH]2)cc1.[Ru+2].c1cnc2c(c1)ccc1cccnc12.c1cnc2c(c1)ccc1cccnc12` [Complex 2], for which the IC50 in the series with A549R MCTSs [1] is 95.7 µM; with A549 it was 43.4 ± 5.3 µM; with A549R it was 48.2 ± 2.7 µM; in the series with LO2 it was 75.8 ± 7.5 µM; with HeLa it was 55.4 ± 3.1 µM. The “log Po/w” value in [6] was “moderate”.
As to `[Ru+2].c1ccc(-c2nc3c4cccnc4c4ncccc4c3[nH]2)cc1.c1cnc2c(c1)ccc1cccnc12.c1cnc2c(c1)ccc1cccnc12` [Complex 1, [Ru(phen)2(PIP)]^2+], the IC50 (in the series on A549R MCTSs [1]; in the series on A549; in the series with A549R; in [7]; in the series with LO2; in the series with HeLa) was greater than 100 µM each time. The “log Po/w” value in series [6] is reported as “negative”.
Turning to Ru(phen)2(tbtfpip)(PF6)2 [Complex 3], the IC50 is 60.6 ± 5.5 µM in the series on A549R MCTSs [1]; 28.6 ± 2.6 µM with A549; 32.2 ± 1.5 µM in the series on A549R; 45.6 ± 3.8 µM in the series with LO2; 22.5 ± 3.3 µM with HeLa. Moreover, in [6], the “log Po/w” value is given as “moderate”.
